US20030027210A1, “Alpha synuclein aggregation assays” (priority 2001, published 2003)
Like-named read-outs stand apart in the source and are kept apart here.

Legend:
[1] = target: alpha synuclein peptide 61-90 (SEQ.ID.No.:3) (Homo sapiens, UniProt P37840); test: Thioflavin T fluorescence disaggregation assay of aggregated alpha synuclein; assay type: biochemical
Experimental: Prior to assay, concentrated alpha synuclein peptide 61-90 (SEQ.ID.No.:3) was diluted into assay buffer containing Thioflavin T (20 uM) such that a signal to noise of approximately 5 to 1 was achieved. Rifampicin was maintained in 8% DMSO at a concentration of 2 mM. To break up super aggregates, the solution was sonicated using a Heat System sonicator with a microprobe. The samples were sonicated in 30 ml volume in a Coming 50 ml centrifuge tube for 25, 3 second bursts. The assay was run in LJL HE (LJL Biosystems) plates as follows: 18 μl of alpha synuclein/thioflavin T mixture was added to the well followed by 2 μl of a 30% DMSO or by rifampicin diluted in 30% DMSO. As a control, buffer with thioflavin T was added to separate wells in the absence of alpha synuclein. The samples were incubated at room temperature for the times indicated in FIG. 1 and were then read on the LJL reader using wavelengths of 440 nm and 485 nm.
To test the effect of incubation times on disaggregation of alpha synuclein, alpha synuclein was incubated with a rifampicin concentration curve ranging from 0.1 μM to 100 μM for 2 and 5 hours. The data are the mean of 11 samples±the standard deviation at each time point.
The signal to background are from quadruplicate samples of buffer (low value) and alpha synuclein/TFT buffer (high value). The EC50 were generated from 11 samples of each time point.
To narrow down the incubation times as well as to identify the concentrations of rifampicin to use, the above study was repeated using incubation times ranging from 5 minutes to 2 hours and rifampicin concentrations of 1.56 μM to 15 μM.

alpha synuclein protein = target: T1, alpha synuclein protein (Homo sapiens, UniProt P37840); test: Thioflavin T alpha-synuclein aggregation assay with or without seeding; assay type: biochemical; conditions: peptide used for seeding; Thioflavin T fluorescence
T1 construct: made in house; host or cells: E. coli ER2566
Experimental: A fluorescence-based TFT high-throughput screening assay was developed for the a-synuclein aggregation. Thioflavin T absorbs at 450 nm and emits at 485 nm; fluorescence increases 40-fold in the presence of beta-sheet conformation (LeVine and Scholten). Thioflavin T was obtained from Fluka Chemika. Twenty four micrograms (24 μg) of alpha synuclein protein in assay buffer (0.2 M potassium chloride pH=6; 0.075% sodium azide) was added to microvolume multiwell plate holding 10 μL. Then, Thioflavin T (TFT) was added to each well to a final concentration of 20 μM and contents were thoroughly mixed. Alpha-synuclein was allowed to fully aggregated prior to conducting a dissaggregation assay. Degree of aggregation was measured by increase in Thioflavin T fluorescence. Alpha-synuclein aggregation was conducted with or without seeding (using a peptide to enhance the rate of aggregation).
Alpha synuclein aggregates through the formation of a beta sheet structure, measured by increased fluorescence of Thioflavin T at 485 nm.

Row | Molecule | EC50 ([1]; incubation time 15 minutes, rifampicin 1.56 μM to 15 μM, read-out: EC50 for Rifampicin to disaggregate alpha synuclein) [µM] | EC50 ([1]; incubation time 30 minutes, rifampicin 1.56 μM to 15 μM, read-out: EC50 for Rifampicin to disaggregate alpha synuclein) [µM] | EC50 ([1]; incubation time 60 minutes, rifampicin 1.56 μM to 15 μM, read-out: EC50 for Rifampicin to disaggregate alpha synuclein) [µM] | EC50 ([1]; incubation time 2 hours, rifampicin 0.1 μM to 100 μM, room temperature, read-out: Rifampicin EC50) [µM] | EC50 ([1]; incubation time 120 minutes, rifampicin 1.56 μM to 15 μM, read-out: EC50 for Rifampicin to disaggregate alpha synuclein) [µM] | EC50 ([1]; incubation time 5 hours, rifampicin 0.1 μM to 100 μM, room temperature, read-out: Rifampicin EC50) [µM] | effect of seeding peptide on rate of synuclein aggregation (alpha synuclein protein)
1 | CO[C@H]1/C=C/O[C@@]2(C)Oc3c(C)c(O)c4c(O)c(c(/C=N/N5CCN(C)CC5)c(O)c4c3C2=O)NC(=O)/C(C)=C\C=C\[C@H](C)[C@H](O)[C@@H](C)[C@@H](O)[C@@H](C)[C@H](OC(C)=O)[C@@H]1C [Rifampicin] | 311 | 76 | 16.8 | 23.9 | 10.6 | 21 | 
2 | EQVTNVGGAVVTGVT [syn 61-75, synthetic peptide of residues 61 to 75 of human alpha synuclein, enhances rate of aggregation] |  |  |  |  |  |  | speed up synuclein aggregation
